Source: US20070166547A1, “Use of a layer consisting of hydrophobic linear, or two-dimensional polycyclic aromatics as a barrier layer or an encapsulation and electric components constructed with a layer of this type and comprising organic polymers” (priority 2003, published 2007)

Tests used:
[1] = system: metabolism of nitrogen oxide; test: Morphine abstinence model: nitrites and nitrates NOX− in blood plasma, liver and brain; assay type: in vivo, rats Wistar
Experimental: (§1) The experiments were carried out on rats in series of 7 animals on each compound according to the invention. Non-morphinized animal with not administered with compounds according to the invention were used as a control group. […] Then the rats were decapitated, the blood from somnolent arteries was collected in test tubes with solution EDTA as an anticoagulant, centrifuged at 1500 g for 15 minutes at 4° C.
To estimate the intensity of metabolism of nitrogen oxide in rats, quantitative determination of stable metabolites of nitrogen oxide—nitrites and nitrates NOX^− in the blood plasma, supernatanates of the liver and thymus gland, a study was conducted by a spectrometric method, and in the brain supernatanates by a […] method.
The spectrometric method is based the reaction of nitrites with the Griss reagent (a mixture of 2% solution of sulfanilamide and 0.2% N-(1-naphthyl)ethylene diamine. At the first step the nitrite reacts with sulfanilamide with formation of diazonium salt, and then with the second component to form azo dye with an adsorption maximum at 540 nm. For reduction of nitrates into nitrites, a fermentative method was used with bacterial reductase nitrate (Grisham M. B. et al., 1995). The samples of plasma and supernatant of the liver deproteinizated at 100° C. for 5 minutes incubated for 30 minutes at 37° C. in 50.0 mM of HEPES pH 7.4 in the presence of 0.2 unit/ml of Aspergillus reductase nitrate, 5.0 mkM of FAD and 0.1 mM of NAD-Ph. At the end of the reaction lactate dehydrogenase and pyruvate were added for isolation of NAD-Ph interfering with the Griss reaction. Then the Griss reagent was added and after 10-minute incubation the light absorption of the samples was measured at 540 nm. To amount of NOX^− was calculated using sodium nitrate as a standard.
The fluorometric method is based on calculation of the nitrite level by the intensity fluorescence of 2,3-diaminonaphthotriazole, a product of reaction of 2,3-diaminonaphthalene (DAN) and nitrite in an acidic medium (Misko T. R., Schilling R. J., Salvemini D. et al. “A fluorometric assay for the measurement of nitrite of biological samples”. Anal. Biochem., 1993, v. 214, p. 11-16). The brain supernatants deproteinizated at 100° C. were placed in a nitrite regenerating system containing 0.125 unit/ml of nitrate reductases, 25 mkM NADPh and 25 mkM FAD prepared in a 20-mM Tris-HCl buffer with pH 7.6 and incubated for 30 minutes at 37° C. The lactatedehydrogenase/pyruvate system was used for oxidation of the NADPh. Then 316 mkM of the DAN solution in 0.62 M of hydrochloric acids were added and the mixture was incubated for 10 minutes in darkness.
280 mM of NaOH were added for stabilization of the fluorescence of the formed 2,3-diaminonaphthotriazole. The fluorescence intensity was measured in the spectrofluorimeter Hitachi F-3000 at a wavelength of excitation of 365 nm and an emission of 405 nm. The concentration of NOX^− in the brain was calculated by means of a standard solution of sodium nitrate.

[2] = system: adenosine-sensitive receptors of thrombocytes; test: ADP-induced aggregation of thrombocytes in vitro (Born method); assay type: cell-based, rabbit; conditions: 3 min incubation, ADP 10^−5 M
Experimental: The compounds according to the invention were studied for the effect of aggregation of thrombocytes induced by a preliminary introduction of a solution of an aggregation inductor with a competing introduction of the compounds according to the invention.
The aggregation of thrombocytes was studied by the Born method based on determination of the changes in the optical density of plasma enriched with thrombocytes after its incubation with an aggregation inductor.
Adenozinediphosphoric acid (ADP) was selected as an aggregation inductor, which in fact is an aggregation generator. Use was made of a sample (registration number 885) of the Sigma Diagnostics Company (USA) in final concentration of 10^−5 M.
The experiments were carried out on male rabbits of the “Chinchilla” breed having a mass of 2.7±0.3 kg. 18-24 hours prior to the experiment they were deprived of feed while preserving free access to water.
To obtain plasma enriched with thrombocytes, blood was taken from a cut of a marginal vein of the rabbit ear, the sample was stabilized with 3.8% of sodium citrate solution in a ratio of 9:1 and centrifuged at 200 g (1000 rev/min) for 10 minutes. The top supernatant layer enriched with thrombocytes was transferred by an automatic dropper into a silicone test tube and kept at 37° C. The plasma enriched with thrombocytes contained, on the average, […]. If this content exceeded the specified 3×10^8 blood platelets in 1 liter, this sample was diluted to the necessary concentration with plasma deprived of thrombocytes, which was obtained by centrifuging blood at 650 g during 10 minutes.
The measurements of the optical density of the samples were made on two-channel aggregometer of the “Chronolog” Company (USA). A flask containing 490 mkl of plasma rich with thrombocytes was placed in a device, into which a magnetic agitator covered with Teflon was lowered. The index of maximum amplitude of aggregation (MA) in percent of a fall of the plasma optical density under effect of the aggregation inductor was recorded. The control index MA of plasma was compared with the MA of plasma incubated for 3 minutes with different concentrations of the compounds: from 10^−3 to 10^−7 in vitro experiments or with plasma obtained 15, 30, 60 and 120 minutes after intravenous administration of different doses of the compounds in vivo experiments.
The process of aggregation of thrombocytes was recorded with the help of a computer; on the monitor screen the there were depicted curves reflecting changes of the optical density of the plasma enriched which was taken as a standard 100% compared to the optical density of the non-thrombocyte plasma taken for 0% content of thrombocytes.
Under in vitro conditions a flask was filled with blood plasma enriched with thrombocytes, to which an aggregation inductor ADP was added at a concentration of 10^−5 M, incubated for 3 minutes, and then the compounds according to the invention were introduced directly into the flask. Their action by aggregation of thrombocytes was studied after 3-minute incubation in a wide range of concentrations from 10^−3 to 10^−7 M to minimum concentration of 10^−7 M not inducing no effect of suppressing the aggregation.

[3] = system: synthase of nitrogen oxide (NOC); test: Morphine abstinence model: activity of synthase of nitrogen oxide (radiometric, [3H]L-citrulline); assay type: in vivo, rats Wistar
thymus [4] = test: Morphine abstinence model: thymus condition; assay type: in vivo, rats; conditions: compound alone
thymus [5] = test: Morphine abstinence model: thymus condition; assay type: in vivo, rats; conditions: morphinized rats then compound
Experimental: The effect of the compounds according to the invention on the condition of the thymus of the rats was also investigated: a control group, an experimental group of morphinized animals and an experimental group of animals were first morphinized and then injected with the compounds according to the invention. The experiment was carried out similarly to that described above.

[6] = system: indicator enzymes in blood plasma; test: Morphine abstinence model: indicator enzymes AST, ALT, γ-GTP in blood plasma; assay type: in vivo, rats Wistar
Experimental: as §1
To estimate possible hepatoprotective action of the compounds according to the invention under conditions of development of an oxidizing stress in the liver cells, effect of these compounds on the most important biochemical blood indexes, in particular, on the content in blood plasma of indicator enzyme of aspartateaminotransferase (AST), alanineaminotransferase (ALT), γ-glutamiletranspeptidase (γ-GTP) was investigated. The content of enzymes was estimated by their catalyzing activity in blood plasma.
The activity of AST, ALT and γ-GTP was determined by means of diagnostic sets DiaSys, Germany.

[7] = for comparison; cited from earlier work
[8] = compound alone 20.0 mg/kg intramuscularly
[9] = morphinized rats then compound 20.0 mg/kg intramuscularly

With O=c1[nH][nH]c(=O)c2ncccc12.[Li] [Compound 6, lithium salt of pyrido[2,3-d]-6H-pyridazine-5,8-dione] the “Nitrites in blood plasma, Control + Compound” value [1, 8] was 15.83 ± 1.21 mkmol/ml, the “Nitrites in brain, Cortex of cerebrum, Control + Compound” value [1, 8] was 4.59 ± 0.44 nmol/mg of protein and the “Nitrites in brain, Hypothalamus, Control + Compound” value [1, 8] was 6.94 ± 0.67 nmol/mg of protein. The “Nitrites in brain, Mesencephalon, Control + Compound” value [1, 8] was 7.01 ± 0.82 nmol/mg of protein, the “Nitrites in liver, Control + Compound” value [1, 8] was 0.245 ± 0.010 nmol/mg of protein and the “Nitrites in blood plasma, Control + Morphine + compound” value [1, 9] was 15.86 ± 1.20 mkmol/ml. The “Nitrites in brain, Cortex of cerebrum, Control + Morphine + compound” value [1, 9] was 5.12 ± 0.18 nmol/mg of protein, the “Nitrites in brain, Hypothalamus, Control + Morphine + compound” value [1, 9] was 6.72 ± 0.94 nmol/mg of protein and the “Nitrites in brain, Mesencephalon, Control + Morphine + compound” value [1, 9] was 5.76 ± 0.94 nmol/mg of protein. The “Nitrites in liver, Control + Morphine + compound” value [1, 9] was 0.294 ± 0.02 nmol/mg of protein, the “MA - fall of optical density of plasma, % to the standard” value (shortened to “MA - fall … % to the standard”) ([2]; 10^−3 M) was 50.0 ± 1.9 % and the “MA - fall … % to the standard” value ([2]; 10^−4 M) was 53.3 ± 2.2 %. The “MA - fall … % to the standard” value ([2]; 10^−5 M) was 47.4 ± 2.0 %, the “MA - drop of optical density, % compared to control” value ([2]; 10^−6 M) was 51.2 ± 3.2% and the “MA - drop of optical density, % compared to control” value ([2]; 10^−7 M) was 50.7 ± 3.2%. The “Activity of NOC, Hypothalamus, Control + Compound” value [3, 8] was 5.93 ± 0.27 pmol/min/mg of protein, the “Activity of NOC, Mesencephalon, Control + Compound” value [3, 8] was 2.84 ± 0.31 pmol/min/mg of protein and the “Activity of NOC, Hypothalamus, Control + Morphine + compound” value [3, 9] was 5.24 ± 0.24 pmol/min/mg of protein. For the same compound, the “Activity of NOC, Mesencephalon, Control + Morphine + compound” value [3, 9] was 1.99 ± 0.31 pmol/min/mg of protein, the “Nitrites, thymus Supernatant, Administration of compounds” value (thymus [4]) was 0.424 ± 0.04 nmol/mg of protein and the “Thymus mass, Administration of compounds” value (thymus [4]) was 242 ± 17 mg. For the same compound, the “Nitrites, thymus Supernatant, Administration of morphine and compound” value (thymus [5]) was 0.419 ± 0.02 nmol/mg of protein, the “Thymus mass, Administration of morphine and compound” value (thymus [5]) was 207 ± 14 mg and the “ALT, Ci, mE/l, Control + compound” value [6, 8] was 114.5 ± 1.13 mE/l. The “AST, Ci, mE/l, Control + compound” value [6, 8] was 176.18 ± 3.26 mE/l, the “γ-GTP, Ci, mE/l, Control + compound” value [6, 8] was 8.27 ± 2.12 mE/l and the “ALT, Ci, mE/l, control + Morphine + Compound” value [6, 9] was 122.44 ± 2.01 mE/l. The “AST, Ci, mE/l, control + Morphine + Compound” value [6, 9] was 198.34 ± 9.32 mE/l and the “γ-GTP, Ci, mE/l, control + Morphine + Compound” value [6, 9] was 12.52 ± 2.02 mE/l.
For Cc1cc2nc3c(=O)[nH]c(=O)nc-3n(C[C@H](O)[C@H](O)[C@H](O)COP(=O)(O)OP(=O)(O)OC[C@H]3O[C@@H](n4cnc5c(N)ncnc54)[C@H](O)[C@@H]3O)c2cc1C [FAD^+], the “E1/2 of electrochemical reduction of coenzyme” value [7] is listed as −0.05 V.
For NC(=O)c1ccc[n+]([C@@H]2O[C@H](COP(=O)([O-])OP(=O)(O)OC[C@H]3O[C@@H](n4cnc5c(N)ncnc54)[C@H](O)[C@@H]3O)[C@@H](O)[C@H]2O)c1 [NAD^+], the “E1/2 of electrochemical reduction of coenzyme” value [7] is listed as −0.32 V.
